Source: patent US9474790B2, “Stable, protracted GLP-1/glucagon receptor co-agonists for medical use” (Novo Nordisk A/S, priority 2013, dated 2016)
Numbered stars: 1 amine (or outer) side, 2 acyl side, 3 side chain; on linkers, the order of the positions; unused ones are H or OH. Square brackets hold non-standard residues; d marks the D form. Side chains are listed from the residue outwards. Peptide text beside a SMILES is read from it. * marks the point of attachment. C18 diacid = O=C(O)CCCCCCCCCCCCCCCCC(=O)*; γGlu = O=C(O)[C@H](CCC(=O)[*:2])N[*:1]; Ac4c = NC1(C(=O)O)CCC1; AEEA = NCCOCCOCC(=O)O; Aib = CC(C)(N)C(=O)O

Legend:
human GLP-1 receptor = target: T1, human GLP-1 receptor (Homo sapiens, UniProt P43220); experiment: GLP-1 receptor potency, CRE luciferase reporter gene assay in BHK cells; type: cell-based; settings: BHK cells expressing human GLP-1 receptor, read-out: EC50 GLP-1R
T1 construct: expressed in transfected cells; host or cells: BHK cells (parent BHKTS13), clone FCW467-12A/KZ10-1, with CRE luciferase
T1 sequence (P43220 24-463): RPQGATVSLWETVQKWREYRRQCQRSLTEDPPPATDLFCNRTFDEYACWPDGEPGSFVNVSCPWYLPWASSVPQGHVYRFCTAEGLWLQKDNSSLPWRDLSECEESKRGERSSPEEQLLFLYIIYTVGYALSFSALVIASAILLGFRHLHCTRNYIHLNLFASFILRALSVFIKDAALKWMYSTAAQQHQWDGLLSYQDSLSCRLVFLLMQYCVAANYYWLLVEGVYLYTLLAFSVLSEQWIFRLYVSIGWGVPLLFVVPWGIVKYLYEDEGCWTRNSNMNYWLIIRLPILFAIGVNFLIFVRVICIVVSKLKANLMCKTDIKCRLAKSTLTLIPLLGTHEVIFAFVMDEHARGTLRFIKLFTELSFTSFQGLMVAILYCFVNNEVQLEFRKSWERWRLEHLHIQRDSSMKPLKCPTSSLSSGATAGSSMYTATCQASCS
Method in brief: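 Potency as cAMP-driven firefly luciferase signal after 3 h, 37° C exposure to 10-fold dilutions (final 1×10EE-13–1×10EE-6 M). Stable hGLP-1R/CRE-luc BHK clone, 5×10EE3 cells/well, medium containing 2% ovalbumin and 0.2% Pluronic F-68; EC50 (pM) from variable-slope non-linear regression.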

[1] = Chemical stability assessment by RP-UPLC; type: physicochemical; settings: 333 μM, 8 mM phosphate buffer pH 7.3, 37° C. vs 5° C.
Method in brief: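 Purity loss = (purity after 14 days at 5° C. minus that at 37° C.) relative to the 5° C. value, purity being main-peak area % by RP-UPLC with UV at 215 nm. Samples were 333 μM in 8 mM phosphate, pH 7.3; gradient adjusted for outlying retention times.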

Row | Structure (SMILES) | EC50 (human GLP-1 receptor) [pM] | Purity loss; 14 days at 37° C. [1] [%]
1 | CC(C)C[C@H](NC(=O)[C@H](CC(=O)O)NC(=O)[C@H](CC(C)C)NC(=O)[C@H](Cc1ccc(O)cc1)NC(=O)[C@H](CCCCN)NC(=O)[C@H](CO)NC(=O)[C@H](CC(C)C)NC(=O)[C@H](CC(=O)O)NC(=O)[C@H](CO)NC(=O)[C@@H](NC(=O)[C@H](Cc1ccccc1)NC(=O)[C@@H](NC(=O)CNC(=O)[C@H](CCC(N)=O)NC(=O)C1(NC(=O)[C@@H](N)Cc2c[nH]cn2)CCC1)[C@@H](C)O)[C@@H](C)O)C(=O)N[C@@H](CCCNC(=N)N)C(=O)N[C@@H](CCCNC(=N)N)C(=O)N[C@@H](C)C(=O)N[C@@H](CCCNC(=N)N)C(=O)N[C@@H](CCC(=O)O)C(=O)N[C@@H](Cc1ccccc1)C(=O)N[C@H](C(=O)N[C@@H](CCC(N)=O)C(=O)N[C@@H](Cc1c[nH]c2ccccc12)C(=O)N[C@@H](CC(C)C)C(=O)N[C@@H](CC(C)C)C(=O)N[C@@H](CCCCNC(=O)CC[C@H](NC(=O)CC[C@H](NC(=O)COCCOCCNC(=O)COCCOCCNC(=O)CC[C@H](NC(=O)CC[C@H](NC(=O)CCCCCCCCCCCCCCCCC(=O)O)C(=O)O)C(=O)O)C(=O)O)C(=O)O)C(=O)N[C@H](C(N)=O)[C@@H](C)O)C(C)C [Example 49, N^ε28-[(4S)-4-carboxy-4-[[(4S)-4-carboxy-4-[[2-[2-[2-[[2-[2-[2-[[(4S)-4-carboxy-4-[[(4S)-4-carboxy-4-(17-carboxyheptadecanoylamino)butanoyl]amino]butanoyl]amino]ethoxy]ethoxy]acetyl]amino]ethoxy]ethoxy]acetyl]amino]butanoyl]amino]butanoyl]-[Acb2,Leu10,Leu16,Arg20,Glu21,Leu27,Lys28]-Glucagon amide] (H-H[Ac4c]QGTFTSDLSKYLDLRRAREFVQWLLK([γGlu-γGlu-AEEA-AEEA-γGlu-γGlu-C18 diacid])T-NH2; N-terminus assumed) | 17 | 2
2 | CC(C)C[C@H](NC(=O)[C@H](Cc1c[nH]c2ccccc12)NC(=O)[C@H](CCC(N)=O)NC(=O)[C@@H](NC(=O)[C@H](Cc1ccccc1)NC(=O)[C@H](CCC(=O)O)NC(=O)[C@H](CCCNC(=N)N)NC(=O)[C@H](C)NC(=O)[C@H](CCCNC(=N)N)NC(=O)[C@H](CCCNC(=N)N)NC(=O)C(C)(C)NC(=O)[C@H](CC(=O)O)NC(=O)[C@H](CC(C)C)NC(=O)[C@H](Cc1ccc(O)cc1)NC(=O)[C@H](CCCCN)NC(=O)[C@H](CO)NC(=O)[C@H](CC(C)C)NC(=O)[C@H](CC(=O)O)NC(=O)[C@H](CO)NC(=O)[C@@H](NC(=O)[C@H](Cc1ccccc1)NC(=O)[C@@H](NC(=O)CNC(=O)[C@H](CCC(N)=O)NC(=O)C(C)(C)NC(=O)[C@@H](N)Cc1c[nH]cn1)[C@@H](C)O)[C@@H](C)O)C(C)C)C(=O)N[C@@H](CC(C)C)C(=O)N[C@@H](CCCCNC(=O)CC[C@H](NC(=O)CC[C@H](NC(=O)COCCOCCNC(=O)COCCOCCNC(=O)CC[C@H](NC(=O)CCCCCCCCCCCCCCCCC(=O)O)C(=O)O)C(=O)O)C(=O)O)C(=O)N[C@H](C(N)=O)[C@@H](C)O [Example 51, N^ε28-[(4S)-4-carboxy-4-[[(4S)-4-carboxy-4-[[2-[2-[2-[[2-[2-[2-[[(4S)-4-carboxy-4-(17-carboxyheptadecanoylamino)butanoyl]amino]ethoxy]ethoxy]acetyl]amino]ethoxy]ethoxy]acetyl]amino]butanoyl]amino]butanoyl]-[Aib2,Leu10,Aib16,Arg20,Glu21,Leu27,Lys28]-Glucagon amide] (H-H[Aib]QGTFTSDLSKYLD[Aib]RRAREFVQWLLK([γGlu-γGlu-AEEA-AEEA-γGlu-C18 diacid])T-NH2; N-terminus assumed) | 6 | 3
3 | CC(C)C[C@H](NC(=O)[C@H](Cc1ccc(O)cc1)NC(=O)[C@H](CCCCN)NC(=O)[C@H](CO)NC(=O)[C@H](CC(C)C)NC(=O)[C@H](CC(=O)O)NC(=O)[C@H](CO)NC(=O)[C@@H](NC(=O)[C@H](Cc1ccccc1)NC(=O)[C@@H](NC(=O)CNC(=O)[C@H](CCC(N)=O)NC(=O)C(C)(C)NC(=O)[C@@H](N)Cc1c[nH]cn1)[C@@H](C)O)[C@@H](C)O)C(=O)N[C@@H](CCC(=O)O)C(=O)N[C@@H](CO)C(=O)N[C@@H](CCCCN)C(=O)N[C@@H](CCCNC(=N)N)C(=O)N[C@@H](C)C(=O)N[C@@H](CCCNC(=N)N)C(=O)N[C@@H](CCC(=O)O)C(=O)N[C@@H](Cc1ccccc1)C(=O)N[C@H](C(=O)N[C@@H](CCC(N)=O)C(=O)N[C@@H](Cc1c[nH]c2ccccc12)C(=O)N[C@@H](CC(C)C)C(=O)N[C@@H](CC(C)C)C(=O)N[C@@H](CCCCNC(=O)CC[C@H](NC(=O)CC[C@H](NC(=O)[C@H](CO)NC(=O)[C@H](CCC(=O)O)NC(=O)[C@H](CO)NC(=O)CC[C@H](NC(=O)CC[C@H](NC(=O)CCCCCCCCCCCCCCCCC(=O)O)C(=O)O)C(=O)O)C(=O)O)C(=O)O)C(=O)N[C@H](C(N)=O)[C@@H](C)O)C(C)C [Example 54, N^ε28-[(4S)-4-carboxy-4-[[(4S)-4-carboxy-4-[[(2S)-2-[[(2S)-4-carboxy-2-[[(2S)-2-[[(4S)-4-carboxy-4-[[(4S)-4-carboxy-4-(17-carboxyheptadecanoylamino)butanoyl]amino]butanoyl]amino]-3-hydroxypropanoyl]amino]butanoyl]amino]-3-hydroxypropanoyl]amino]butanoyl]amino]butanoyl]-[Aib2,Leu10,Glu15,Lys17,Arg20,Glu21,Leu27,Lys28]-Glucagon amide] (H-H[Aib]QGTFTSDLSKYLESKRAREFVQWLLK([γGlu-γGlu-Ser-Glu-Ser-γGlu-γGlu-C18 diacid])T-NH2; N-terminus assumed) | 2.7 | 1
4 | CC(C)C[C@H](NC(=O)[C@H](Cc1ccc(O)cc1)NC(=O)[C@H](CCCCN)NC(=O)[C@H](CO)NC(=O)[C@H](CC(C)C)NC(=O)[C@H](CC(=O)O)NC(=O)[C@H](CO)NC(=O)[C@@H](NC(=O)[C@H](Cc1ccccc1)NC(=O)[C@@H](NC(=O)CNC(=O)[C@H](CCC(N)=O)NC(=O)C(C)(C)NC(=O)[C@@H](N)Cc1c[nH]cn1)[C@@H](C)O)[C@@H](C)O)C(=O)N[C@@H](CCC(=O)O)C(=O)N[C@@H](CO)C(=O)N[C@@H](CCCNC(=N)N)C(=O)N[C@@H](CCCNC(=N)N)C(=O)N[C@@H](C)C(=O)N[C@@H](CCCNC(=N)N)C(=O)N[C@@H](CCC(=O)O)C(=O)N[C@@H](Cc1ccccc1)C(=O)N[C@H](C(=O)N[C@@H](CCC(N)=O)C(=O)N[C@@H](Cc1c[nH]c2ccccc12)C(=O)N[C@@H](CC(C)C)C(=O)N[C@@H](CC(C)C)C(=O)N[C@@H](CCCCNC(=O)CC[C@H](NC(=O)CC[C@H](NC(=O)COCCOCCNC(=O)COCCOCCNC(=O)CC[C@H](NC(=O)CC[C@H](NC(=O)CCCCCCCCCCCCCCCCC(=O)O)C(=O)O)C(=O)O)C(=O)O)C(=O)O)C(=O)N[C@H](C(N)=O)[C@@H](C)O)C(C)C [Example 60, N^ε28-[(4S)-4-carboxy-4-[[(4S)-4-carboxy-4-[[2-[2-[2-[[2-[2-[2-[[(4S)-4-carboxy-4-[[(4S)-4-carboxy-4-(17-carboxyheptadecanoylamino)butanoyl]amino]butanoyl]amino]ethoxy]ethoxy]acetyl]amino]ethoxy]ethoxy]acetyl]amino]butanoyl]amino]butanoyl]-[Aib2,Leu10,Glu15,Arg20,Glu21,Leu27,Lys28]-Glucagon amide] (H-H[Aib]QGTFTSDLSKYLESRRAREFVQWLLK([γGlu-γGlu-AEEA-AEEA-γGlu-γGlu-C18 diacid])T-NH2; N-terminus assumed) | 6 | 4
5 | CC(C)C[C@H](NC(=O)[C@H](Cc1ccc(O)cc1)NC(=O)[C@H](CCCCN)NC(=O)[C@H](CO)NC(=O)[C@H](CC(C)C)NC(=O)[C@H](CC(=O)O)NC(=O)[C@H](CO)NC(=O)[C@@H](NC(=O)[C@H](Cc1ccccc1)NC(=O)[C@@H](NC(=O)CNC(=O)[C@H](CCC(N)=O)NC(=O)C1(NC(=O)[C@@H](N)Cc2c[nH]cn2)CCC1)[C@@H](C)O)[C@@H](C)O)C(=O)N[C@@H](CCC(=O)O)C(=O)N[C@@H](CO)C(=O)N[C@@H](CCCNC(=N)N)C(=O)N[C@@H](CCCNC(=N)N)C(=O)N[C@@H](C)C(=O)N[C@@H](CCC(N)=O)C(=O)N[C@@H](CC(=O)O)C(=O)N[C@@H](Cc1ccccc1)C(=O)N[C@H](C(=O)N[C@@H](CCC(N)=O)C(=O)N[C@@H](Cc1c[nH]c2ccccc12)C(=O)N[C@@H](CC(C)C)C(=O)N[C@@H](CC(C)C)C(=O)N[C@@H](CCCCNC(=O)COCCOCCNC(=O)COCCOCCNC(=O)CC[C@H](NC(=O)CC[C@H](NC(=O)CC[C@H](NC(=O)CCCCCCCCCCCCCCCCC(=O)O)C(=O)O)C(=O)O)C(=O)O)C(=O)N[C@H](C(N)=O)[C@@H](C)O)C(C)C [Example 63, N^ε28-[2-[2-[2-[[2-[2-[2-[[(4S)-4-carboxy-4-[[(4S)-4-carboxy-4-[[(4S)-4-carboxy-4-(17-carboxyheptadecanoylamino)butanoyl]amino]butanoyl]amino]butanoyl]amino]ethoxy]ethoxy]acetyl]amino]ethoxy]ethoxy]acetyl]-[Acb2,Leu10,Glu15,Leu27,Lys28]-Glucagon amide] (H-H[Ac4c]QGTFTSDLSKYLESRRAQDFVQWLLK([AEEA-AEEA-γGlu-γGlu-γGlu-C18 diacid])T-NH2; N-terminus assumed) | 7 | 1
